Tested on: MV-4-11 cells
Test: Gene expression microarray analysis (Affymetrix PrimeView) and GSEA
Type: cell-based, human
Parameters: RFU PODN (11730768_x_at) / Fold change /veh PODN (11730768_x_at) / RFU LINC00158 (11744669_a_at) / Fold change /veh LINC00158 (11744669_a_at) / RFU DUSP10 (11751237_a_at) / Fold change /veh DUSP10 (11751237_a_at) / RFU ID3 (11757404_x_at) / Fold change /veh ID3 (11757404_x_at) / RFU PLEKHG5 (11737974_s_at) / Fold change /veh PLEKHG5 (11737974_s_at) / RFU LRRC4B (11730491_at) / Fold change /veh LRRC4B (11730491_at) / RFU GIMAP4 (11747438_a_at) / Fold change /veh GIMAP4 (11747438_a_at) / RFU KRT8 (11758183_x_at) / Fold change /veh KRT8 (11758183_x_at) / RFU CNN1 (11734310_a_at) / Fold change /veh CNN1 (11734310_a_at) / RFU VPS37D (11726825_at) / Fold change /veh VPS37D (11726825_at) / RFU C10orf10 (11716522_x_at) / Fold change /veh C10orf10 (11716522_x_at) / RFU KIR2DL2 /// KIR2DL4 /// KIR2DL5A /// KIR2DL5B /// KIR2DS1 /// KIR2DS2 /// KIR2DS3 /// KIR2DS4 /// KIR3DL3 /// KIR3DL3 /// KIR3DS1 (11738374_at) / Fold change /veh KIR2DL2 /// KIR2DL4 /// KIR2DL5A /// KIR2DL5B /// KIR2DS1 /// KIR2DS2 /// KIR2DS3 /// KIR2DS4 /// KIR3DL3 /// KIR3DL3 /// KIR3DS1 (11738374_at) / RFU C1QL1 (11718748_at) / Fold change /veh C1QL1 (11718748_at) / RFU TMPRSS4 (11747572_a_at) / Fold change /veh TMPRSS4 (11747572_a_at) / RFU HAMP (11756126_x_at) / Fold change /veh HAMP (11756126_x_at) / RFU RNFT2 (11725882_a_at) / Fold change /veh RNFT2 (11725882_a_at) / RFU NR4A2 (11747474_a_at) / Fold change /veh NR4A2 (11747474_a_at) / RFU ABCC12 (11746883_a_at) / Fold change /veh ABCC12 (11746883_a_at) / RFU TMEM136 (11760407_x_at) / Fold change /veh TMEM136 (11760407_x_at) / RFU CLDN22 /// WWC2 (11732394_at) / Fold change /veh CLDN22 /// WWC2 (11732394_at) / RFU HLA-DPB1 (11760878_x_at) / Fold change /veh HLA-DPB1 (11760878_x_at) / RFU SPINT1 (11716480_a_at) / Fold change /veh SPINT1 (11716480_a_at) / RFU GAP43 (11754022_s_at) / Fold change /veh GAP43 (11754022_s_at) / RFU A4GNT (11735810_at) / Fold change /veh A4GNT (11735810_at) / RFU PRB3 (11715151_x_at) / Fold change /veh PRB3 (11715151_x_at) / RFU TUBB4B (11761932_at) / Fold change /veh TUBB4B (11761932_at) / RFU CAPN14 (11732068_a_at) / Fold change /veh CAPN14 (11732068_a_at) / RFU TMCC2 (11721928_a_at) / Fold change /veh TMCC2 (11721928_a_at) / RFU IRGQ (11745062_a_at) / Fold change /veh IRGQ (11745062_a_at) / RFU FAM174B (11720279_a_at) / Fold change /veh FAM174B (11720279_a_at) / RFU TMPRSS4 (11748680_a_at) / Fold change /veh TMPRSS4 (11748680_a_at) / RFU FAM212B (11763350_a_at) / Fold change /veh FAM212B (11763350_a_at) / RFU PLEKHG5 (11743358_a_at) / Fold change /veh PLEKHG5 (11743358_a_at) / RFU ZSCAN30 (11745921_a_at) / Fold change /veh ZSCAN30 (11745921_a_at) / RFU CMKLR1 (11741424_a_at) / Fold change /veh CMKLR1 (11741424_a_at) / RFU LOC101060620 /// MAPK8IP1 (11723275_at) / Fold change /veh LOC101060620 /// MAPK8IP1 (11723275_at) / RFU SPTSSB (11747773_x_at) / Fold change /veh SPTSSB (11747773_x_at) / RFU PRSS12 (11739890_at) / Fold change /veh PRSS12 (11739890_at) / RFU BIN1 (11741810_x_at) / Fold change /veh BIN1 (11741810_x_at) / RFU WNT11 (11732464_a_at) / Fold change /veh WNT11 (11732464_a_at) / RFU C10orf10 (11716521_a_at) / Fold change /veh C10orf10 (11716521_a_at) / RFU C5orf56 (11738089_at) / Fold change /veh C5orf56 (11738089_at) / RFU CYB561 (11721691_x_at) / Fold change /veh CYB561 (11721691_x_at) / RFU ANKRD19P (11752326_a_at) / Fold change /veh ANKRD19P (11752326_a_at) / RFU OR2T12 /// OR2T33 /// OR2T8 (11738714_s_at) / Fold change /veh OR2T12 /// OR2T33 /// OR2T8 (11738714_s_at) / RFU VCAN (11748164_a_at) / Fold change /veh VCAN (11748164_a_at) / RFU JSRP1 (11732532_at) / Fold change /veh JSRP1 (11732532_at) / RFU KRTAP10-11 (11738290_x_at) / Fold change /veh KRTAP10-11 (11738290_x_at) / RFU MYO3A (11730013_a_at) / Fold change /veh MYO3A (11730013_a_at) / RFU EBF3 (11725865_a_at) / Fold change /veh EBF3 (11725865_a_at) / RFU CAMK2N1 (11719241_x_at) / Fold change /veh CAMK2N1 (11719241_x_at) / RFU C5orf56 (11738088_a_at) / Fold change /veh C5orf56 (11738088_a_at) / RFU OLFML3 (11715873_a_at) / Fold change /veh OLFML3 (11715873_a_at) / RFU LOC100653217 /// NTM (11731650_a_at) / Fold change /veh LOC100653217 /// NTM (11731650_a_at) / RFU MAPK11 (11762145_a_at) / Fold change /veh MAPK11 (11762145_a_at) / RFU FIZ1 (11724087_x_at) / Fold change /veh FIZ1 (11724087_x_at) / RFU OASL (11726364_x_at) / Fold change /veh OASL (11726364_x_at) / RFU SOX15 (11748057_x_at) / Fold change /veh SOX15 (11748057_x_at) / RFU CD79A (11719716_a_at) / Fold change /veh CD79A (11719716_a_at) / RFU HIST1H1D (11736915_at) / Fold change /veh HIST1H1D (11736915_at) / RFU CASKIN2 (11723855_a_at) / Fold change /veh CASKIN2 (11723855_a_at) / RFU LOC730098 (11760151_x_at) / Fold change /veh LOC730098 (11760151_x_at) / RFU OR4N2 (11742367_at) / Fold change /veh OR4N2 (11742367_at) / RFU PRRT2 (11749266_a_at) / Fold change /veh PRRT2 (11749266_a_at) / RFU SNX32 (11753110_a_at) / Fold change /veh SNX32 (11753110_a_at) / RFU CDHR5 (11726645_a_at) / Fold change /veh CDHR5 (11726645_a_at) / RFU RCAN1 (11760418_a_at) / Fold change /veh RCAN1 (11760418_a_at) / RFU FAM167A (11723789_a_at) / Fold change /veh FAM167A (11723789_a_at) / RFU FAM26E (11764081_at) / Fold change /veh FAM26E (11764081_at) / RFU ISYNA1 (11749810_s_at) / Fold change /veh ISYNA1 (11749810_s_at) / RFU ACY1 (11761880_at) / Fold change /veh ACY1 (11761880_at) / RFU 11764098_at / Fold change /veh 11764098_at / RFU SAMD14 (11745864_x_at) / Fold change /veh SAMD14 (11745864_x_at) / RFU NPB (11741838_a_at) / Fold change /veh NPB (11741838_a_at) / RFU TMPRSS6 (11731388_a_at) / Fold change /veh TMPRSS6 (11731388_a_at) / RFU KRTAP10-2 (11738614_at) / Fold change /veh KRTAP10-2 (11738614_at) / RFU ARHGAP8 /// PRR5-ARHGAP8 (11727945_x_at) / Fold change /veh ARHGAP8 /// PRR5-ARHGAP8 (11727945_x_at) / RFU KRTAP5-7 /// NADSYN1 (11734609_at) / Fold change /veh KRTAP5-7 /// NADSYN1 (11734609_at) / RFU RASL12 (11751679_a_at) / Fold change /veh RASL12 (11751679_a_at) / RFU CDKN2B (11736163_a_at) / Fold change /veh CDKN2B (11736163_a_at) / RFU PRF1 (11729649_at) / Fold change /veh PRF1 (11729649_at) / RFU, ZNF638 /// ZNF638-IT1 / Fold change vs veh, ZNF638 /// ZNF638-IT1 / RFU, PANK3 / Fold change vs veh, PANK3 / RFU, SH3YL1 / Fold change vs veh, SH3YL1 / RFU, ZEB2 / Fold change vs veh, ZEB2 / RFU, NRIP1 / Fold change vs veh, NRIP1 / RFU, PTTG1IP / Fold change vs veh, PTTG1IP / RFU, CAPN2 / Fold change vs veh, CAPN2 / RFU, MED14 / Fold change vs veh, MED14 / RFU, SNORA58 / Fold change vs veh, SNORA58 / RFU, C1orf63 / Fold change vs veh, C1orf63 / RFU, LRRFIP1 / Fold change vs veh, LRRFIP1 / RFU, NDUFAF7 / Fold change vs veh, NDUFAF7 / RFU, SLC12A2 / Fold change vs veh, SLC12A2 / RFU, IBTK / Fold change vs veh, IBTK / RFU, ESF1 / Fold change vs veh, ESF1 / Fold change vs veh, TMEM50B / RFU, TAOK1 / Fold change vs veh, TAOK1 / RFU, ACBD3 / Fold change vs veh, ACBD3 / RFU, TMA16 / Fold change vs veh, TMA16 / RFU, RWDD3 / Fold change vs veh, RWDD3 / RFU, BCAT1 / Fold change vs veh, BCAT1 / RFU, EDEM3 / Fold change vs veh, EDEM3 / RFU, TMEM33 / Fold change vs veh, TMEM33 / RFU, WDR75 / Fold change vs veh, WDR75 / RFU, AHCTF1 / Fold change vs veh, AHCTF1 / RFU, TFRC / Fold change vs veh, TFRC / RFU, ZDHHC17 / Fold change vs veh, ZDHHC17 / RFU, NOM1 / Fold change vs veh, NOM1 / RFU, ARL8B / Fold change vs veh, ARL8B / RFU, ZBTB11 / Fold change vs veh, ZBTB11 / RFU, TAMM41 / Fold change vs veh, TAMM41 / RFU, KIAA1704 /// LOC100996395 / Fold change vs veh, KIAA1704 /// LOC100996395 / RFU, ING1 / Fold change vs veh, ING1 / RFU, TRMT61B / Fold change vs veh, TRMT61B / RFU, FUBP3 / Fold change vs veh, FUBP3 / RFU, TP53 / Fold change vs veh, TP53 / RFU, TNKS2 / Fold change vs veh, TNKS2 / RFU, ZFP14 / Fold change vs veh, ZFP14 / RFU, ACTR2 / Fold change vs veh, ACTR2 / RFU, PPP3R1 / Fold change vs veh, PPP3R1 / RFU, PIK3R1 / Fold change vs veh, PIK3R1 / RFU, HNRNPA1 / Fold change vs veh, HNRNPA1 / RFU, RNF170 / Fold change vs veh, RNF170 / RFU, ZNF28 / Fold change vs veh, ZNF28 / RFU, RNGTT / Fold change vs veh, RNGTT / RFU, OGT / Fold change vs veh, OGT / RFU, BRD1 / Fold change vs veh, BRD1 / RFU, MARS / Fold change vs veh, MARS / RFU, ZNF655 / Fold change vs veh, ZNF655 / RFU, FAHD1 / Fold change vs veh, FAHD1 / RFU, BDP1 / Fold change vs veh, BDP1 / RFU, LRRCC1 / Fold change vs veh, LRRCC1 / RFU, ARID1A / Fold change vs veh, ARID1A / RFU, ZNF146 / Fold change vs veh, ZNF146 / RFU, ZNF330 / Fold change vs veh, ZNF330 / RFU, GPN3 / Fold change vs veh, GPN3 / RFU, C9orf123 / Fold change vs veh, C9orf123 / RFU, N4BP2L2 / Fold change vs veh, N4BP2L2 / RFU, ARFIP1 / Fold change vs veh, ARFIP1 / RFU, FAM179B / Fold change vs veh, FAM179B / RFU, BCL10 / Fold change vs veh, BCL10 / RFU, UHRF1BP1L / Fold change vs veh, UHRF1BP1L / RFU, BET1 / Fold change vs veh, BET1 / RFU, CNOT2 / Fold change vs veh, CNOT2 / RFU, ZNF268 / Fold change vs veh, ZNF268 / Fold change vs veh, ZNF507 / RFU, DGCR2 / Fold change vs veh, DGCR2 / RFU, WDSUB1 / Fold change vs veh, WDSUB1 / Fold change vs veh, HSP90B1 /// MIR3652 / RFU, ADSS / Fold change vs veh, ADSS / RFU, GK / Fold change vs veh, GK / RFU, ZNF148 / Fold change vs veh, ZNF148 / RFU, TAF9 / Fold change vs veh, TAF9 / RFU, SLC1A5 / Fold change vs veh, SLC1A5 / RFU, SLMO2 / Fold change vs veh, SLMO2 / RFU, ABCC4 / Fold change vs veh, ABCC4 / RFU, LOC101060439 /// RAP1B / Fold change vs veh, LOC101060439 /// RAP1B / RFU, RFX7 / Fold change vs veh, RFX7 / RFU, GTPBP10 / Fold change vs veh, GTPBP10 / RFU, CNEP1R1 / Fold change vs veh, CNEP1R1 / RFU, BIVM-ERCC5 /// ERCC5 / Fold change vs veh, BIVM-ERCC5 /// ERCC5 / RFU, ILF3 / Fold change vs veh, ILF3 / RFU 11762660_at / Fold change /veh 11762660_at / RFU VCAN (11757783_s_at) / Fold change /veh VCAN (11757783_s_at) / RFU DDX43 (11728927_at) / Fold change /veh DDX43 (11728927_at) / RFU KRT8 (11758188_x_at) / Fold change /veh KRT8 (11758188_x_at) / RFU NKD1 (11759106_at) / Fold change /veh NKD1 (11759106_at) / RFU SRD5A1 (11742802_a_at) / Fold change /veh SRD5A1 (11742802_a_at) / RFU TPSAB1 /// TPSB2 (11721975_s_at) / Fold change /veh TPSAB1 /// TPSB2 (11721975_s_at) / RFU GSTM3 (11746129_a_at) / Fold change /veh GSTM3 (11746129_a_at) / RFU IL23R (11737362_x_at) / Fold change /veh IL23R (11737362_x_at) / RFU TMEM51 (11727254_a_at) / Fold change /veh TMEM51 (11727254_a_at) / RFU PIWIL2 (11732686_x_at) / Fold change /veh PIWIL2 (11732686_x_at) / RFU ORM1 (11744905_x_at) / Fold change /veh ORM1 (11744905_x_at) / RFU CCDC152 (11743942_at) / Fold change /veh CCDC152 (11743942_at) / RFU ECM1 (11717891_a_at) / Fold change /veh ECM1 (11717891_a_at) / RFU IL23R (11748794_a_at) / Fold change /veh IL23R (11748794_a_at) / RFU TNFAIP8L3 (11732012_x_at) / Fold change /veh TNFAIP8L3 (11732012_x_at) / RFU MBOAT4 (11741988_at) / Fold change /veh MBOAT4 (11741988_at) / RFU 11764193_at / Fold change /veh 11764193_at / RFU TMEM53 (11763286_at) / Fold change /veh TMEM53 (11763286_at) / RFU MAGEB2 (11727129_at) / Fold change /veh MAGEB2 (11727129_at) / RFU TMEM200A (11744735_a_at) / Fold change /veh TMEM200A (11744735_a_at) / RFU CCDC152 (11751479_a_at) / Fold change /veh CCDC152 (11751479_a_at) / RFU FAM211A (11726209_a_at) / Fold change /veh FAM211A (11726209_a_at) / RFU RGS16 (11746705_a_at) / Fold change /veh RGS16 (11746705_a_at) / RFU VCAN (11755009_s_at) / Fold change /veh VCAN (11755009_s_at) / RFU RHOB (11743442_s_at) / Fold change /veh RHOB (11743442_s_at) / RFU RGS16 (11720943_a_at) / Fold change /veh RGS16 (11720943_a_at) / RFU RGS16 (11720944_at) / Fold change /veh RGS16 (11720944_at) / RFU, VPS4B / Fold change vs veh, VPS4B / RFU, CREB1 / Fold change vs veh, CREB1 / RFU, DNAJC13 / Fold change vs veh, DNAJC13 / RFU, GNAQ / Fold change vs veh, GNAQ / RFU, CDK5R1 / Fold change vs veh, CDK5R1 / RFU, ZRANB3 / Fold change vs veh, ZRANB3 / RFU, CUL4A / Fold change vs veh, CUL4A / RFU, CCNY / Fold change vs veh, CCNY / RFU, UFL1 / Fold change vs veh, UFL1 / RFU, COG3 / Fold change vs veh, COG3 / RFU, DIAPH2 / Fold change vs veh, DIAPH2 / RFU, SKA2 / Fold change vs veh, SKA2 / RFU, AFF3 / Fold change vs veh, AFF3 / RFU, LMF1 / Fold change vs veh, LMF1 / RFU, IPO11 / Fold change vs veh, IPO11 / RFU, DFFB / Fold change vs veh, DFFB / RFU, FOXP1 / Fold change vs veh, FOXP1 / RFU, CARD8 / Fold change vs veh, CARD8 / RFU, STRN3 / Fold change vs veh, STRN3 / RFU, ADK / Fold change vs veh, ADK / RFU, RASSF2 / Fold change vs veh, RASSF2 / RFU, WIPF1 / Fold change vs veh, WIPF1 / RFU, LARP1B / Fold change vs veh, LARP1B / RFU, RASA1 / Fold change vs veh, RASA1 / RFU, RB1 / Fold change vs veh, RB1 / RFU, PPFIA1 / Fold change vs veh, PPFIA1 / RFU, MAT2A / Fold change vs veh, MAT2A / RFU, CCT5 / Fold change vs veh, CCT5 / RFU, WDR92 / Fold change vs veh, WDR92 / RFU, CUX1 / Fold change vs veh, CUX1 / RFU, TTC7A / Fold change vs veh, TTC7A / RFU, TMEM135 / Fold change vs veh, TMEM135 / RFU, DEPTOR / Fold change vs veh, DEPTOR / RFU, CPM / Fold change vs veh, CPM / RFU, DNAJB6 / Fold change vs veh, DNAJB6 / RFU, CACNA2D3 / Fold change vs veh, CACNA2D3 / RFU, DTX4 / Fold change vs veh, DTX4 / RFU, TFCP2 / Fold change vs veh, TFCP2 / RFU, GMCL1 /// GMCL1P1 / Fold change vs veh, GMCL1 /// GMCL1P1 / RFU, AEBP2 / Fold change vs veh, AEBP2 / RFU, SNHG1 /// SNORD22 /// SNORD25 /// SNORD26 /// SNORD27 /// SNORD28 /// SNORD29 /// SNORD31 / Fold change vs veh, SNHG1 /// SNORD22 /// SNORD25 /// SNORD26 /// SNORD27 /// SNORD28 /// SNORD29 /// SNORD31 / Fold change (Aza/veh), C12orf56 (ProbeSet 11735607_a_at) / Fold change (ACY-1035/veh), C12orf56 (ProbeSet 11735607_a_at) / Fold change (Aza/veh), FGFR1OP (ProbeSet 11751329_s_at) / Fold change (ACY-1035/veh), FGFR1OP (ProbeSet 11751329_s_at) / Fold change (Aza/veh), VPS36 (ProbeSet 11739960_a_at) / Fold change (ACY-1035/veh), VPS36 (ProbeSet 11739960_a_at) / RFU SYPL1 (11715823_x_at) / Fold change /veh SYPL1 (11715823_x_at) / RFU IGFBP7 (11715501_s_at) / Fold change /veh IGFBP7 (11715501_s_at) / RFU REEP3 (11722064_at) / Fold change /veh REEP3 (11722064_at) / RFU IGLL1 (11728026_x_at) / Fold change /veh IGLL1 (11728026_x_at): dose or concentration left out as unconfirmed
Conditions: MV-4-11 cells, 48 hours

Q: How did the “RFU GSTM3 (11746129_a_at)” value turn out when `Nc1ccc(-c2cccs2)cc1NC(=O)c1ccc2c(c1)cc(C1CC1)n2CCN1CCOCC1` [ACY-1035] was run?
A: 10.76 RFU
